Source: patent US20110224208A1, “NOVEL INHIBITORS OF FLAVIVIRUS REPLICATION” (KATHOLIEKE UNIVERSITEIT LEUVEN, K.U. LEUVEN R&D, priority 2008, published 2011)
Converted amounts (≈) assume the structure as drawn.

Key:
[1] = system: HCV replicon I389luc-ubi-neo/NS3-3'/5.1; experiment: Anti-HCV replicon assay (luciferase activity) in Huh-5-2 cells; assay type: cell-based, Hepatitis C virus; conditions: Hepatitis C virus, Huh-5-2, 72 h, concentration required to inhibit luciferase activity in the replicon system by 50%
Description: (§1) Cells were seeded at a density of 7000 cells per well in 96 well View Plate™ (Packard) in medium containing the same components as described above, except for G418. Cells were allowed to adhere and proliferate for 24 hr. At that time, culture medium was removed and serial dilutions of the test compounds were added in culture medium lacking G418. Interferon alfa 2a (500 IU) was included as a positive control. Plates were further incubated at 37° C. and 5% CO2 for 72 hours. Replication of the HCV replicon in Huh-5 cells results in luciferase activity in the cells. Luciferase activity is measured by adding 50 μl of 1×Glo-lysis buffer (Promega) for 15 minutes followed by 50 ul of the Steady-Glo Luciferase assay reagent (Promega). Luciferase activity is measured with a luminometer and the signal in each individual well is expressed as a percentage of the untreated cultures. […] Instead the density of the culture is measured by means of the MTS method (Promega).

[2] = Proliferation of exponentially growing Huh-5-2 cells (MTS method); conditions: human, CC50, concentration required to inhibit the proliferation of exponentially growing Huh-5-2 cells by 50%; Table 2
Description: as §1

SMILES	IC50 [1] [µg/mL]	CC50 at 72 h [2] [µg/mL]
CCN1C(=O)c2ccccc2C(C(=O)Nc2cccc(OC)c2)C1c1cccs1 (stereo not drawn) [C5, 2-Ethyl-N-(3-methoxyphenyl)-1-oxo-3-(thiophen-2-yl)-1,2,3,4-tetrahydroisoquinoline-4-carboxamide]	3.6 (≈ 8.86 µM)	33.4 (≈ 82.2 µM)
COCCN1C(=O)c2ccccc2C(C(=O)Nc2cccc(OC)c2)C1c1ccco1 (stereo not drawn) [C6, 3-(furan-2-yl)-2-(2-methoxyethyl)-N-(3-methoxyphenyl)-1-oxo-1,2,3,4-tetrahydroisoquinoline-4-carboxamide]	6.3 (≈ 15 µM)	69.6 (≈ 166 µM)
COCCN1C(=O)c2ccccc2C(C(=O)Nc2cccc(OC)c2)C1c1cccc(F)c1 (stereo not drawn) [C8, 3-(3-Fluorophenyl)-2-(2-methoxyethyl)-N-(3-methoxyphenyl)-1-oxo-1,2,3,4-tetrahydroisoquinoline-4-carboxamide]	21.8 (≈ 48.6 µM)	54.5 (≈ 122 µM)
COCCN1C(=O)c2ccccc2C(C(=O)Nc2cccc(OC)c2)C1c1ccc(F)cc1 (stereo not drawn) [C9, 3-(4-Fluorophenyl)-2-(2-methoxyethyl)-N-(3-methoxyphenyl)-1-oxo-1,2,3,4-tetrahydroisoquinoline-4-carboxamide]	13.4 (≈ 29.8 µM)	50.7 (≈ 113 µM)
COCCN1C(=O)c2ccccc2C(C(=O)Nc2cccc(OC)c2)C1c1ccsc1 (stereo not drawn) [C11, 2-(2-Methoxyethyl)-N-(3-methoxyphenyl)-1-oxo-3-(thiophen-3-yl)-1,2,3,4-tetrahydroisoquinoline-4-carboxamide]	1.2 (≈ 2.75 µM)	37.9 (≈ 86.8 µM)
COCCCN1C(=O)c2ccccc2C(C(=O)Nc2cccc(OC)c2)C1c1cccs1 (stereo not drawn) [C13, N-(3-methoxyphenyl)-2-(3-methoxypropyl)-1-oxo-3-(thiophen-2-yl)-1,2,3,4-tetrahydroisoquinoline-4-carboxamide]	2.11 (≈ 4.68 µM)	33.3 (≈ 73.9 µM)
COCCN1C(=O)c2ccccc2C(C(=O)Nc2cccc(OC)c2)C1c1sccc1Cl (stereo not drawn) [C17, 3-(3-Chlorothiophen-2-yl)-2-(2-methoxyethyl)-N-(3-methoxyphenyl)-1-oxo-1,2,3,4-tetrahydroisoquinoline-4-carboxamide]	3.8 (≈ 8.07 µM)	50.4 (≈ 107 µM)
COCCN1C(=O)c2ccccc2C(C(=O)Nc2ccccc2)C1c1cccs1 (stereo not drawn) [C18, 2-(2-Methoxyethyl)-1-oxo-N-phenyl-3-(thiophen-2-yl)-1,2,3,4-tetrahydroisoquinoline-4-carboxamide]	2.65 (≈ 6.52 µM)	78.2 (≈ 192 µM)
COCCN1C(=O)c2ccccc2C(C(=O)Nc2ccc(C(F)(F)F)cc2)C1c1cccs1 (stereo not drawn) [C19, 2-(2-Methoxyethyl)-1-oxo-3-(thiophen-2-yl)-N-(4-(trifluoromethyl)phenyl)-1,2,3,4-tetrahydroisoquinoline-4-carboxamide]	5.2 (≈ 11 µM)	12.1 (≈ 25.5 µM)
COCCN1C(=O)c2ccccc2C(C(=O)Nc2ccc(C#N)cc2)C1c1cccs1 (stereo not drawn) [C20, N-(4-cyanophenyl)-2-(2-methoxyethyl)-1-oxo-3-(thiophen-2-yl)-1,2,3,4-tetrahydroisoquinoline-4-carboxamide]	0.4 (≈ 0.927 µM)	42 (≈ 97.3 µM)
COc1cccc(NC(=O)C2c3ccccc3C(=O)N(CCO)C2c2cccs2)c1 (stereo not drawn) [C23, 2-(2-Hydroxyethyl)-N-(3-methoxyphenyl)-1-oxo-3-(thiophen-2-yl)-1,2,3,4-tetrahydroisoquinoline-4-carboxamide]	43 (≈ 102 µM)	118 (≈ 280 µM)
COc1cccc(NC(=O)C2c3ccccc3C(=O)N(C3CCCCC3)C2c2cccs2)c1 (stereo not drawn) [C25, 2-Cyclohexyl-N-(3-methoxyphenyl)-1-oxo-3-(thiophen-2-yl)-1,2,3,4-tetrahydroisoquinoline-4-carboxamide]	0.98 (≈ 2.13 µM)	5.28 (≈ 11.5 µM)
COCCN1C(=O)c2ccccc2C(C(=O)Nc2cccc(OC)c2)C1c1ccc[nH]1 (stereo not drawn) [C29, 2-(2-Methoxyethyl)-N-(3-methoxyphenyl)-1-oxo-3-(1H-pyrrol-2-yl)-1,2,3,4-tetrahydroisoquinoline-4-carboxamide]	14.8 (≈ 35.2 µM)	54.5 (≈ 130 µM)
COCCN1C(=O)c2ccccc2C(C(=O)Nc2cccc(OC)c2)C1c1ccncc1 (stereo not drawn) [C30, 2-(2-Methoxyethyl)-N-(3-methoxyphenyl)-1-oxo-3-(pyridin-4-yl)-1,2,3,4-tetrahydroisoquinoline-4-carboxamide]	36.7 (≈ 85 µM)	70.3 (≈ 163 µM)
COCCn1c(-c2cccs2)c(C(=O)Nc2cccc(OC)c2)c2ccccc2c1=O [C32, 2-(2-methoxyethyl)-N-(3-methoxyphenyl)-1-oxo-3-(thiophen-2-yl)-1,2-dihydroisoquinoline-4-carboxamide]	37.3 (≈ 85.8 µM)	73.7 (≈ 170 µM)
COc1cccc(NC(=O)C2c3ccccc3C(=O)N(Cc3ccccc3)C2c2cccs2)c1 (stereo not drawn) [C37, 2-Benzyl-N-(3-methoxyphenyl)-1-oxo-3-(thiophen-2-yl)-1,2,3,4-tetrahydroisoquinoline-4-carboxamide]	1.5 (≈ 3.2 µM)	92.7 (≈ 198 µM)
COCCN1C(=O)c2cccc(C)c2C(C(=O)Nc2cccc(OC)c2)C1c1cccs1 (stereo not drawn) [C39, 2-(2-Methoxyethyl)-N-(3-methoxyphenyl)-5-methyl-1-oxo-3-(thiophen-2-yl)-1,2,3,4-tetrahydroisoquinoline-4-carboxamide]	1.3 (≈ 2.89 µM)	80 (≈ 178 µM)
COCCN1C(=O)c2ccccc2C(C(=O)NCCc2cn(C)c3ccccc23)C1c1cccs1 (stereo not drawn) [C44, 2-(2-Methoxyethyl)-N-(2-(1-methyl-1H-indol-3-yl)ethyl)-1-oxo-3-(thiophen-2-yl)-1,2,3,4-tetrahydroisoquinoline-4-carboxamide]	4.17 (≈ 8.55 µM)	28.4 (≈ 58.2 µM)
COCCN1C(=O)c2cc(OC)ccc2C(C(=O)Nc2cccc(OC)c2)C1c1cccs1 (stereo not drawn) [C50, 7-Methoxy-2-(2-methoxyethyl)-N-(3-methoxyphenyl)-1-oxo-3-(thiophen-2-yl)-1,2,3,4-tetrahydroisoquinoline-4-carboxamide]	0.7 (≈ 1.5 µM)	76.4 (≈ 164 µM)
COCCN1C(=O)c2ccccc2C(C(=O)Nc2cccc(OC)c2)C1c1cccnc1 (stereo not drawn) [C53, 2-(2-Methoxyethyl)-N-(3-methoxyphenyl)-1-oxo-3-(pyridin-3-yl)-1,2,3,4-tetrahydroisoquinoline-4-carboxamide]	52.9 (≈ 123 µM)	80.8 (≈ 187 µM)
COCCN1C(=O)c2ccccc2C(C(=O)Nc2cccc(OC)c2)C1C(C)(C)C (stereo not drawn) [C57, 3-tert-Butyl-2-(2-methoxyethyl)-N-(3-methoxyphenyl)-1-oxo-1,2,3,4-tetrahydroisoquinoline-4-carboxamide]	39.5 (≈ 96.1 µM)	76.2 (≈ 186 µM)
CCOc1cccc(NC(=O)C2c3ccccc3C(=O)N(CCOC)C2c2cccs2)c1 (stereo not drawn) [C59, N-(3-ethoxyphenyl)-2-(2-methoxyethyl)-1-oxo-3-(thiophen-2-yl)-1,2,3,4-tetrahydroisoquinoline-4-carboxamide]	0.3 (≈ 0.666 µM)	88.1 (≈ 196 µM)
COc1cccc(NC(=O)C2c3ccccc3C(=O)N(CC(F)(F)F)C2c2cccs2)c1 (stereo not drawn) [C62, N-(3-methoxyphenyl)-1-oxo-3-(thiophen-2-yl)-2-(2,2,2-trifluoroethyl)-1,2,3,4-tetrahydroisoquinoline-4-carboxamide]	8.81 (≈ 19.1 µM)	16.4 (≈ 35.5 µM)
COc1cccc(NC(=O)C2c3ccccc3C(=O)N(CCCN3CCOCC3)C2c2cccs2)c1 (stereo not drawn) [C64, N-(3-methoxyphenyl)-2-(3-morpholinopropyl)-1-oxo-3-(thiophen-2-yl)-1,2,3,4-tetrahydroisoquinoline-4-carboxamide]	23.9 (≈ 47.2 µM)	47.8 (≈ 94.5 µM)
